Experimental data from patent US20240368194A1, “IRAK4 DEGRADATION AGENT, AND PREPARATION METHOD THEREFOR AND USE THEREOF” (SHANGHAI LEADINGTAC PHARMACEUTICAL CO. LTD., priority 2021, published 2024).

Assays:
IRAK4 kinase = IRAK4 kinase (Homo sapiens (Human), UniProt Q9NWZ3); assay: IRAK4 kinase activity test (KinEASE-STK S1 HTRF kit); type: biochemical; settings: 2.5 nM IRAK4 kinase, 7 μM ATP, 37° C. 120 min
Procedure, shortened: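 Human IRAK4 (2.5 nM) with 1 μM biotinylated peptide substrate and 7 μM ATP, incubated 120 min at 37 °C. HTRF read-out (Eu anti-phospho-Ser/Thr antibody, XL665-streptavidin; 665/620 nm ratio) after 1 h at room temperature. IC50 from inhibition relative to control by non-linear fit of log concentration.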

[1] = biological target: IRAK4 protein in THP-1 cells (Homo sapiens (Human), UniProt Q9NWZ3); assay: Degradation of IRAK4 in THP-1 cells, human IRAK4 AlphaLISA assay; type: cell-based; settings: 24 h incubation
Procedure, shortened: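 THP-1 cells, after overnight plating, exposed 24 h at 37 °C to compound at 0.03-3000 nM final. Lysate IRAK4 read by Western blot and by AlphaLISA (acceptor beads 10 μg/mL, biotin anti-IRAK4 1 nM, donor beads 40 μg/mL, 23 °C). DC50 and Dmax from log concentration-response fit.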

[2] = tested on: IL-6 production in LPS-induced human whole blood; assay: IL-6 secreted by LPS-induced normal human whole blood PBMCs (IL-6 AlphaLISA); type: cell-based; settings: compound 20 h, then LPS 100 ng/mL 5 h
Protocol: Fresh normal human whole blood (healthy people from 22-50 years of age, freshly collected blood) anticoagulated with heparin sodium was plated onto a 96-well clear cell plate (Labserv, 310109008) at 190 μL/well, and 10 μL of diluted compound solution was then added to corresponding wells, such that the final concentration of the compound fell within the range of 10-20,000 nM. The final concentration of dimethyl sulfoxide was 0.1%. The compound-treated cell plate was sealed with a plate-sealing membrane. After the plate was incubated in a 37° C., 5% carbon dioxide incubator for 20 h, 10 μL of LPS (0111:B4) (Sigma, L4391) was added, making a final concentration of 100 ng/mL. […]
IL-6 standard solutions with different concentrations, ranging from […], were prepared by following the instructions for use of the product, 2 μL of each of the IL-6 standard solutions and test samples of cell supernatant were added to a white 384-well plate (PerkinElmer, 6007299), and 8 μL of a mixed solution of 5× anti-IL-6 receptor beads (PerminElmer, final concentration of 10 μg/mL) and biotin-labeled anti-IL-6 antibody (PerminElmer, final concentration of 1 nM) was then added to each well. […] After the incubation was complete, AlphaLISA signal values were measured on a microplate reader EnVision (PerkinElmer, 2105) in the AlphaScreen standard mode. […]

[3] = tested on: IL-6 production in LPS-induced human PBMCs; assay: IL-6 secreted by LPS-induced human PBMCs (IL-6 AlphaLISA); type: cell-based; settings: PBMC, compound 1 h or 20 h, then LPS 100 ng/mL 5 h, read-out: hPBMC IC50
Protocol: Frozen human PBMCs (Milestone, PB010C) were thawed and resuspended in RPMI 1640 medium (Gibco, A1049101) supplemented with 10%/o fetal bovine serum (Gibco, 10099141), 100 U/mL penicillin and 100 sg/mL streptomycin (Gibco, 15140122). On the same day. PBMCs were plated onto a 96-well clear cell plate (Labserv, 310109008) at 150 μL/well, with a cell density of 2×10^5 cells/well. Then 50 μL of diluted compound solution was added to corresponding wells with cells, such that the final concentration of the compound fell within the range of 0.026-10,000 nM. The final concentration of DMSO was 0.25%. […]
IL-6 standard solutions with different concentrations, ranging from […], were prepared by following the instructions for use of the product, 2 μL of each of the IL-6 standard solutions and test samples of cell supernatant were added to a white 384-well plate (PerkinElmer, 6007299), and 8 μL of a mixed solution of 5×anti-IL-6 receptor beads (final concentration of 10 μg/mL) and biotin-labeled anti-IL-6 antibody (final concentration of 1 nM) was then added to each well. […] After the incubation was complete, AlphaLISA signal values were measured on a microplate reader EnVision (PerkinElmer, 2105) in the AlphaScreen standard mode. […] The inhibition rate of the compound at each concentration was calculated by comparing the IL-6 concentration with that of the control group. […]

IRAK4 protein in THP-1 cells, sequence (Q9NWZ3 whole entry): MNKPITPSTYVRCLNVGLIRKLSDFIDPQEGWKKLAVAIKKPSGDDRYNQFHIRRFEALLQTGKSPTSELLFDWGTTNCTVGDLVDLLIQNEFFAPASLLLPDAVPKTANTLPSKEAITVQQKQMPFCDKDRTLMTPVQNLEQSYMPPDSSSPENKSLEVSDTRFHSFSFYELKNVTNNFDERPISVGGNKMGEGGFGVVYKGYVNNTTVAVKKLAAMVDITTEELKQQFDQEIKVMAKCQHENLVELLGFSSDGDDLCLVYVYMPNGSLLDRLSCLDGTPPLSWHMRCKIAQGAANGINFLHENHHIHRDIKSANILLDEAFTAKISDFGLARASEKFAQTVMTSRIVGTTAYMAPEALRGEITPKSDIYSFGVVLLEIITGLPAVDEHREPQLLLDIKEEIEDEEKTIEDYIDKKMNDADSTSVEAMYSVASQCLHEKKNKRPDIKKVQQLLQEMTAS
IRAK4 kinase, sequence (Q9NWZ3 whole entry): as above

| IC50 (IRAK4 kinase) | DC50 [1] | Dmax [1] | SMILES | IC50 [2] | IC50 [3] |
| --- | --- | --- | --- | --- | --- |
| 30.3 nM | 3.7 nM | 90% | O=C1CCN(c2cc(C(=O)N3CCC4(CCC(CN5CCC(n6cc(NC(=O)c7cnn8ccc(N9C[C@H]%10C[C@@H]9CO%10)nc78)c(C(F)F)n6)CC5)CC4)CC3)ccc2Cl)C(=O)N1 [Example 1, 5-((1R,4R)-2-oxa-5-azabicyclo[2.2.1]heptan-5-yl)-N-(1-(1-((3-(4-chloro-3-(2,4-dioxotetrahydropyrimidin-1(2H)-yl)benzoyl)-3-azaspiro[5.5]undecan-9-yl)methyl)piperidin-4-yl)-3-(difluoromethyl)-1H-pyrazol-4-yl)pyrazolo[1,5-a]pyrimidine-3-carboxamide] | 287 nM | 3.1 nM |
| 15.5 nM | 1.8 nM | 95.8% | O=C1CCN(c2cc(C(=O)N3CCC4(CCN(C[C@H]5CC[C@H](n6cc(NC(=O)c7cnn8ccc(N9C[C@H]%10C[C@@H]9CO%10)nc78)c(C(F)F)n6)CC5)CC4)CC3)ccc2Cl)C(=O)N1 [Example 2, 5-((1R,4R)-2-oxa-5-azabicyclo[2.2.1]heptan-5-yl)-N-(1-((1r,4R)-4-((9-(4-chloro-3-(2,4-dioxotetrahydropyrimidin-1(2H)-yl)benzoyl)-3,9-diazaspiro[5.5]undecan-3-yl)methyl)cyclohexyl)-3-(difluoromethyl)-1H-pyrazol-4-yl)pyrazolo[1,5-a]pyrimidine-3-carboxamide] | 246 nM | 2.2 nM |
